The test system of data set [1] is human mammary epithelial cell line HMEC. Kind of data set: In vitro activity test, Test Example 4, normal cell. It counts as cell-based. The procedure: (§1) Human liver cancer cell line HePG2 or human breast cancer cell line KPL-4 was seeded in a 96-well plate at 2×10^4 cells/well. On the next day, irinotecan and each SN-38 derivative (compound A ((SN-38×C6 dimer (S—S, ester)), compound B (SN-38×C6 dimer (S—S, carbonate))) nanoparticle dispersion were added to the HepG2 cell culture medium to 0.04 to 10 μM. Then, the cells were cultured for 48 hours, and the cell viability was measured by a colorimetric method using the Cell Counting Kit-8 (produced by Dojindo Laboratories) and a microplate reader.
(§2) As in Test Example 1, human colon cancer cell line HCT-116 or human mammary epithelial cell line HMEC was seeded in a 96-well plate at 2×10^4 cells/well. On the next day, SN-38 and the SN-38 derivative (SNC4DC) nanoparticle dispersion were added to the cell culture medium to 0.04 to 10 μM. Then, the cells were cultured for 48 hours, and the cell viability was measured by a colorimetric method using the Cell Counting Kit-8 (produced by Dojindo Laboratories) and a microplate reader.

Data set [2] relates to human colon cancer cell line HCT-116. Kind of data set: In vitro activity test, Test Example 4, cancer cell. Type of data set: cell-based. The conditions noted are these: HCT-116 (Cancer cell), 48 hours, read-out: cell viability IC50. As for the experimental part: as §1, §2
The test system of data set [3] is Human liver cancer cell line HePG2 or human breast cancer cell line KPL-4. Kind of data set: In vitro activity test, Test Example 1 (cell viability, Cell Counting Kit-8). It counts as cell-based. The note with it: nanoparticle dispersion, 0.04 to 10 μM, 48 hours. The procedure:
as §1
(Tetrazolium assays rely on reduction of a dye to a coloured formazan, in cell work by metabolically active cells.)

A short description of data set [4]: Dispersion stability of the nano-prodrug. Type of data set: physicochemical. The text has this:
(§3) Then, nanoparticles were produced. […] The present invention is based on these new findings. Therefore, the present invention provides the following items: […]

A short description of data set [5]: Drug release triggered by the S-S bond on addition of dithiothreitol and glutathione. The conditions noted are these: dithiothreitol and glutathione (reduced form) added to the nano-prodrug. Type of data set: physicochemical.
Excerpt: as §3

A short description of data set [6]: Nanoparticle aqueous dispersion, particle size and aggregation by SEM and DLS. It counts as physicochemical. The note with it: 0.1 mM aqueous dispersion of nanoparticles. The procedure:
100 μL of THF solution of compound A or B prepared to 10 mM was injected into 10 mL of water using a syringe at room temperature, followed by stirring for 2 seconds at 1500 rpm, thereby obtaining an aqueous dispersion of nanoparticles. The concentration of the final aqueous dispersion was 0.1 mM.
100 μL of DMSO or THF solution of each compound prepared to 10 mM was injected into 10 mL of water using a syringe at room temperature, followed by stirring for 2 seconds at 1500 rpm, thereby obtaining an aqueous dispersion of nanoparticles. The concentration of the final aqueous dispersion was 0.1 mM.

One may read the IC50 as the point on the concentration scale where inhibition reaches its midpoint. Take `CCc1c2c(nc3ccc(O)cc13)-c1cc3c(c(=O)n1C2)COC(=O)[C@]3(O)CC` [SN-38]: in data set [1] (HMEC, in words from Table 4), the “toxicity to normal cells” value is on record as “highly toxic to normal cells”. The concentration for half-maximal inhibition (IC50) in data set [1] (Homo sapiens, HMEC (Normal cell), 48 hours, read-out: cell viability IC50) stood at 550 nM; in data set [2] it was 40 nM.

`CCCCCC(=O)Oc1ccc2nc3c(c(CC)c2c1)Cn1c-3cc2c(c1=O)COC(=O)[C@@]2(CC)OC(=O)CCCSSCCCC(=O)O[C@]1(CC)C(=O)OCc2c1cc1n(c2=O)Cc2c-1nc1ccc(OC(=O)CCCCC)cc1c2CC` [compound A]: in data set [3], the “pharmacological activity (cell viability, FIG. 1)” value is given as “did not exhibited good pharmacological activity”. Also, in data set [4], the dispersion stability is not below 7 days. For the same compound, in data set [5], the “cleavage of the S-S bond” value is on record as “the cleavage of the S—S bond proceeded somewhat” and the “formation of C6 acyloxy-substituted SN-38 derivative (drug release)” value was “not confirmed”. Further, the particle size result in data set [6] is “about 100 nm”.

The values are drawn from patent US20240300979A1, “SN-38 DERIVATIVE, NANO-PARTICLES CONTAINING SAID DERIVATIVE, MEDICINE, AND METHOD FOR PRODUCING SAID NANO-PARTICLES” (JAPAN SCIENCE AND TECHNOLOGY AGENCY, priority 2021, published 2024).
